Results published in patent US8629166B2, “5-cycloalkyl- or 5-heterocyclyl-nicotinamides” (Hoffmann-La Roche Inc., priority 2011, dated 2014).

Experiments:
ABCA1 protein = assay: Detection of upregulation of ABCA1 protein in cells (ApoA-I binding, high content image analysis); format: cell-based; conditions: THP-1 macrophage cells; for % increase of ABCA1 at 3 μM: compound at 3 μM, 24 hrs; for EC50: ABCA1 protein increasing efficacy
Experimental: Detection of Upregulation of ABCA1 Protein in Cells
The ability of compounds of the invention to increase the level of ABCA1 protein is determined in replicate cultures of THP-1 macrophage cells in 96-well microplates. Cells are plated at an initial density of 100,000 cells/well in 100 μl medium and differentiated to adherent macrophages with the addition of PMA (100 nM) for 68 hrs in 10% fetal bovine serum, 3 μl/L of b-mercaptoethanol, RPMI-1640 medium. Then, cells are incubated with RPMI-1640 medium containing 1% FCS, 25 μg/ml acetylated LDL, for 24 hours at 37° C. Following incubation with acetylated LDL, cells are washed twice with 50 μl PBS and incubated with 100 μl of RPMI-1640 medium containing the compound of interest solubilized in DMSO for an additional 24 hrs. The final DMSO concentration in presence of cells is maintained at 0.5%. ApoA-I binding assay using High Content Image Analysis is initiated by replacing with fresh medium, RPMI without Phenol Red, 0.2% BSA containing AlexaFluor®647 labeled ApoA-I for 2 h/37° C./5% CO2. Then, cells are fixed with 4% Formaldehyde in PBS (15 min, RT). Following Nuclei are stained with Hoechst solution (3 μM PBS) and Cytoplasm with Cell Mask Blue (2 μg/ml PBS), 15 min, RT. Finally the stained cells are fixed with a second round of formaldehyde treatment. Fixed stained cells are washed and kept in PBS at 4° C. and can be read immediately until one month after preparation.
The Alexa Fluor 647-labeled Apolipoprotein A-I (20 nM) was prepared as follows: Human recombinant Apolipoprotein A-I (ApoA-I) was exchanged to a buffer of 0.02 M NaHCO3 at pH 8.2 on an NAP desalting column (GE Healthcare) and brought to a concentration to 40 μM (1.13 mg/ml) by adjustment with the same buffer. The ApoA-I was fluorescently labeled by incubation with Alexa Fluor carboxylic acid succimidyl ester (Alexa Fluor 647, Invitrogen A-20006) at a 2:1 molar ratio (Alexa to ApoA-I) for 1 h under shaking at RT. The remaining unconjugated label was removed by buffer exchange to 0.02M NaHCO3 at pH 8.2.
Imaging and data collection were performed on an OPERA confocal microplate imaging reader using a 20× water immersion objective and UV360 or 405 laser to identify the cell nuclei and a 635 laser to identify the fluorescent ApoA-I. Eight fields of view are captured per well. Image capture and analysis was performed with the Acapella software. Background fluorescence detected in control wells without ApoA-I was subtracted.
Using XLfit3 program (ID Business Solutions Ltd. UK), the model 205 for Dose Response One Site is used to calculate the EC50 values. […] Particularly, the compounds of the present invention have EC50 values in a range of 0.1 μM to 3 μm.

human CB1 receptor = biological target: T1, human CB1 receptor (Homo sapiens, UniProt P21554); assay: CB1 receptor affinity ([3H]-CP-55,940 displacement, HEK cell membranes); format: binding; conditions: displacement of [3H]-CP-55,940 at 10 μM
T1 construct: expressed in transfected cells; host or cells: human embryonic kidney (HEK) cells, Semliki Forest Virus system, membrane preparation
T1 sequence (P21554 whole entry): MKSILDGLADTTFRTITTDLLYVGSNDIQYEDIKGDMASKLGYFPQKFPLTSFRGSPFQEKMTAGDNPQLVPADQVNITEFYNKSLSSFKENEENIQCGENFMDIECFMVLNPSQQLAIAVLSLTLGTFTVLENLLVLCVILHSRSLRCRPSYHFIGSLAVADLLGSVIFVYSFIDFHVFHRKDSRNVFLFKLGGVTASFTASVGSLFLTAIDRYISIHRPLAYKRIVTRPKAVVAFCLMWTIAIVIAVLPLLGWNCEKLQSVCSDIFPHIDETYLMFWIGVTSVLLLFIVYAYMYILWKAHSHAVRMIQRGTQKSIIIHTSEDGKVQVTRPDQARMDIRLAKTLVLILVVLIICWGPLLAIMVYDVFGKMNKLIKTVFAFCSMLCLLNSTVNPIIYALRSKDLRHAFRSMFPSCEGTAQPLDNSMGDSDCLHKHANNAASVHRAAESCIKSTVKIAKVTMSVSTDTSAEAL
Experimental: (§1) CB1 and CB2 Receptor Affinity
(§2) The affinity of the compounds of the invention for cannabinoid receptors was determined using membrane preparations of human embryonic kidney (HEK) cells in which the human CB1 receptor is transiently transfected using a Semliki Forest Virus system in conjunction with [3H]-CP-55,940 as radioligand. After incubation of freshly prepared cell membrane preparation with the [^3H]-ligand, with or without addition of compounds of the invention, separation of bound and free ligand was performed by filtration over glass fiber filters. Radioactivity on the filter was measured by scintillation counting.
(§3) The ability of the compounds to displace the radioligand [^3H]-CP-55,940 was measured at a concentration of 10 μM and values provided as [% inhibition @ 10 μM] both for the CB1 and CB2 receptor assay, The lower % inhibition is, the lower the likelihood of side effects based on CB1 or CB2 receptor inhibition is.

human CB2 receptor = biological target: T2, human CB2 receptor (Homo sapiens, UniProt P34972); assay: CB2 receptor affinity ([3H]-CP-55,940 displacement, HEK cell membranes); format: binding; conditions: displacement of [3H]-CP-55,940 at 10 μM
T2 construct: expressed in transfected cells; host or cells: human embryonic kidney (HEK) cells, Semliki Forest Virus system, membrane preparation
T2 sequence (P34972 whole entry): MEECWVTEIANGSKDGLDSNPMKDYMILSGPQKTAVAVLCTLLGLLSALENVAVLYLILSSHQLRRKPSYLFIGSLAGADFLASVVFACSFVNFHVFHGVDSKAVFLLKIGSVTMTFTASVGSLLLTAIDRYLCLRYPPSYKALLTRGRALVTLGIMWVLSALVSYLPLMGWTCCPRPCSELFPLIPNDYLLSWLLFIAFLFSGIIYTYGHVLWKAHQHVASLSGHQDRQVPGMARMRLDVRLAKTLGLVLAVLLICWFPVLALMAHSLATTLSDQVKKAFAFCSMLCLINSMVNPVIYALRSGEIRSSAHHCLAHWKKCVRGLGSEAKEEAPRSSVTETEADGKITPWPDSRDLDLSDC
Experimental: as §1
as §2, with “cannabinoid CB2” for “cannabinoid”, “CB2” for “CB1”, “[^3H]-CP-55,940” for “[3H]-CP-55,940”
as §3

SMILES	CB1 receptor affinity [% inhibition @ 10 μM] (human CB1 receptor)	CB2 receptor affinity [% inhibition @ 10 μM] (human CB2 receptor)	% increase of ABCA1 at 3 μM (ABCA1 protein)	EC50 (ABCA1 protein)
COc1cc(CNC(=O)c2cnc(OCC(F)(F)F)c(C3CCCCC3)c2)on1 [Example 13, 5-cyclohexyl-N-(3-methoxy-isoxazol-5-ylmethyl)-6-(2,2,2-trifluoro-ethoxy)-nicotinamide]	45 % inhibition	5 % inhibition	>45% @ 3 μM	
O=C(NCc1nc(C(F)(F)F)no1)c1cnc(OCC(F)(F)F)c(C2=CCCCC2)c1 [Example 3, 5-cyclohex-1-enyl-6-(2,2,2-trifluoro-ethoxy)-N-(3-trifluoromethyl-[1,2,4]oxadiazol-5-ylmethyl)-nicotinamide]	42 % inhibition	−1 % inhibition	>45% @ 3 μM	
O=C(NCc1csc(C2CC2)n1)c1cnc(OCC(F)(F)F)c(C2CCCC2)c1 [Example 18, 5-cyclopentyl-N-(2-cyclopropyl-thiazol-4-ylmethyl)-6-(2,2,2-trifluoro-ethoxy)-nicotinamide]	17 % inhibition	14 % inhibition	>45% @ 3 μM	
O=C(Nc1cccnc1)c1cnc(OCC(F)(F)F)c(C2CCCCC2)c1 [Example 6, 5-cyclohexyl-N-pyridin-3-yl-6-(2,2,2-trifluoro-ethoxy)-nicotinamide]	17 % inhibition	2 % inhibition		3390 nM
O=C(Nc1cccnc1)c1cnc(OCC(F)(F)F)c(C2=CCCCC2)c1 [Example 1, 5-cyclohex-1-enyl-N-pyridin-3-yl-6-(2,2,2-trifluoro-ethoxy)-nicotinamide]	33 % inhibition	5 % inhibition		510 nM
O=C(NCc1ccn(CC2CC2)n1)c1cnc(OCC(F)(F)F)c(C2CCCCC2)c1 [Example 15, 5-cyclohexyl-N-(1-cyclopropylmethyl-1H-pyrazol-3-ylmethyl)-6-(2,2,2-trifluoro-ethoxy)-nicotinamide]	49 % inhibition	14 % inhibition	>45% @ 3 μM	
O=C(NCc1nc(C(F)(F)F)no1)c1cnc(OCC(F)(F)F)c(C2CCCCC2)c1 [Example 4, 5-cyclohexyl-6-(2,2,2-trifluoro-ethoxy)-N-(3-trifluoromethyl-[1,2,4]oxadiazol-5-ylmethyl)-nicotinamide]	31 % inhibition	2 % inhibition		150 nM
O=C(Nc1ccncn1)c1cnc(OCC(F)(F)F)c(C2CCCCC2)c1 [Example 21, 5-cyclohexyl-N-pyrimidin-4-yl-6-(2,2,2-trifluoro-ethoxy)-nicotinamide]	38 % inhibition	−4 % inhibition	>45% @ 3 μM	
O=C(Nc1cccnc1)c1cnc(OCC(F)(F)F)c(C2CCCC2)c1 [Example 8, 5-cyclopentyl-N-pyridin-3-yl-6-(2,2,2-trifluoro-ethoxy)-nicotinamide]	49 % inhibition	13 % inhibition	>45% @ 3 μM	
O=C(Nc1cccnc1)c1cnc(OCC(F)(F)F)c(C2=CCCC2)c1 [Example 7, 5-cyclopent-1-enyl-N-pyridin-3-yl-6-(2,2,2-trifluoro-ethoxy)-nicotinamide]	11 % inhibition	3 % inhibition	>45% @ 3 μM	
O=C(Nc1cccnn1)c1cnc(OCC(F)(F)F)c(C2CCCC2)c1 [Example 9, 5-cyclopentyl-N-pyridazin-3-yl-6-(2,2,2-trifluoro-ethoxy)-nicotinamide]	7 % inhibition	9 % inhibition		10000 nM
O=C(NCc1nc(C(F)(F)F)no1)c1cnc(OCC(F)(F)F)c(C2=CCOCC2)c1 [Example 5, 5-(3,6-dihydro-2H-pyran-4-yl)-6-(2,2,2-trifluoro-ethoxy)-N-(3-trifluoromethyl-[1,2,4]oxadiazol-5-ylmethyl)-nicotinamide]	15 % inhibition	−2 % inhibition		2920 nM
COc1cc(CNC(=O)c2cnc(OCC(F)(F)F)c(C3CCCC3)c2)on1 [Example 12, 5-cyclopentyl-N-(3-methoxy-isoxazol-5-ylmethyl)-6-(2,2,2-trifluoro-ethoxy)-nicotinamide]	29 % inhibition	12 % inhibition	>45% @ 3 μM	

Continued, in another order:

CB1 receptor affinity [% inhibition @ 10 μM] (human CB1 receptor)	CB2 receptor affinity [% inhibition @ 10 μM] (human CB2 receptor)	SMILES	% increase of ABCA1 at 3 μM (ABCA1 protein)	EC50 (ABCA1 protein)
12 % inhibition	2 % inhibition	O=C(Nc1cnccn1)c1cnc(OCC(F)(F)F)c(C2CCCC2)c1 [Example 28, 5-cyclopentyl-N-pyrazin-2-yl-6-(2,2,2-trifluoro-ethoxy)-nicotinamide]	>45% @ 3 μM	
27 % inhibition	0 % inhibition	N#Cc1ccc(NC(=O)c2cnc(OCC(F)(F)F)c(C3CCCC3)c2)cc1 [Example 25, N-(4-cyano-phenyl)-5-cyclopentyl-6-(2,2,2-trifluoro-ethoxy)-nicotinamide]	>45% @ 3 μM	
12 % inhibition	−11 % inhibition	O=C(Nc1cncnc1)c1cnc(OCC(F)(F)F)c(C2CCCC2)c1 [Example 22, 5-cyclopentyl-N-pyrimidin-5-yl-6-(2,2,2-trifluoro-ethoxy)-nicotinamide]	>45% @ 3 μM	
24 % inhibition	−2 % inhibition	O=C(Nc1ccnnc1)c1cnc(OCC(F)(F)F)c(C2CCCC2)c1 [Example 26, 5-cyclopentyl-N-pyridazin-4-yl-6-(2,2,2-trifluoro-ethoxy)-nicotinamide]	>45% @ 3 μM	
18 % inhibition	11 % inhibition	O=C(Nc1cnccn1)c1cnc(OCC(F)(F)F)c(C2CCCCC2)c1 [Example 27, 5-cyclohexyl-N-pyrazin-2-yl-6-(2,2,2-trifluoro-ethoxy)-nicotinamide]	>45% @ 3 μM	
31 % inhibition	−3 % inhibition	O=C(Nc1ccncn1)c1cnc(OCC(F)(F)F)c(C2CCCC2)c1 [Example 23, 5-cyclopentyl-N-pyrimidin-4-yl-6-(2,2,2-trifluoro-ethoxy)-nicotinamide]	>45% @ 3 μM	
